Here are results for 5 compounds from patent US5731160A, “Induction of antigen specific T-lymphocyte responses by stimulation with peptide loaded MHC class I molecules on antigen processing defective mammalian cell lines” (Rijksuniversiteit Leiden, priority 1992, dated 1998).

Like-named read-outs stand apart in the source and are kept apart here.

For one test, the system named is 174CEM.T2 cells. The experiment in a line: Primary CTL response induction with p53 peptide loaded 174CEM.T2 cells and HLA-A2.1 positive PBL. The settings on record: PBL from healthy non-immunized HLA-A2.1 positive donor; peptide 80 μg/ml. It counts as cell-based, human. As for the experimental part: 174CEM.T2 (T2) cells in a concentration of 2×10^6 per ml were incubated for 13 hours at 37° C. in a T25 flask (Falcon, Becton & Dickinson, Plymouth, England, cat. no. 3013) in serum-free Iscove's medium (Biochrom KG, Seromed, Berlin, Gemany, cat. no. F0465) with glutamine (2 mM, ICN Biochemicals Inc., Costa Mes, Calif., U.S.A., cat. no. 15-801-55) and antibiotics as mentioned under 2 and p53 peptide at a final concentration of 80 μg/ml. Subsequently the T2 cells were spun down and treated at a density of 20×10^6 cells/ml with Mitomycin C (final concentration 50 μg/ml) in serum-free RPMI 1640 (manufacturer see 2) medium during one hour at 37° C. Thereafter the T2 cells were washed three times im RPMI 1640. Primary CTL responses were induced by filling all wells of a 96-well-U-bottom plate (Costar, Cambridge, Mass., U.S.A., cat. no. 3799) with 1×10^5 Mitomycin-C treated T2 cells in 50 μl of medium (serum-free RPMI 1640 containing glutamine and antibiotics as mentioned before), containing peptide at a concentration of 80 μg/ml. To these stimulator cells were added 4×10^5 HLA-A2.1 positive PBL in 50 μl of medium to each well. Stimulator and responder cells were cocultured for 7 days at 37° C. in an humidified incubator (90% humidity) and 5% CO2 in air.
On days 7 and 14 after primary response induction (see 5) the PBL (responder cells) were restimulated with peptide. […]

For the next test, the system named is T2 cells. The experiment in a line: 51Cr release cytotoxicity assay of p53 peptide specific CTL clones on peptide loaded T2 target cells. It counts as cell-based, human. The settings on record: peptide titration. As for the experimental part:
As target cells served T2 cells, labeled with 100 μCi ^51 Cr for 1 h at 37° C. […] The target cells were washed once more before adding them to the effector cells. Effector target ratio ranged from 20:1 to 2.5:1 in twofold dilution. […] Total duration of the incubation time was 4 h at 37° C.
The percentage ^51 Cr release was calculated by the formula: [formula] 7. Cloning of CTL by limiting dilution
The clones were tested for specificity on peptide loaded ^51 Cr labeled target cells ranging from E/T 20 to E/T 2.5 in twofold dilution steps.

The subject of the next test is RMA-S cells. Briefly: Induction of primary CTL responses in vitro with peptide-loaded RMA-S cells. It counts as cell-based, murine. The settings on record: for Induction of primary CTL response by peptide-loaded RMA-S cells: NWP SC of unprimed B6 mice, 5-day culture, RMA-S as stimulator cells. How it is done: (§1) RMA-S or RMA cells were pre-cultured for 36 h at 22° C. or 37° C. in IMDM medium supplemented with 2% human pooled serum, penicillin (100 IU/ml), kanamycin (100 μg/ml), S and 2-ME (2×10^-5 M). […] Without further washing these (peptide-loaded) RMA-S cells were incubated 1:1(v/v) with C57BL/6 nylon wool-passed spleen cells (B6 NWP SC) in 24-well culture plates: 4×10^6 responder cells and 1×10^6 stimulator cells in 1 ml of culture medium per well in IMDM medium supplemented with 10% FCS, penicillin (100 IU/ml), kanamycin (100 μg/ml), and 2-ME(2×10^-5 M). For a primary CTL response NWP SC of non-immunized C57BL/6 mice were used.
(§2) After 5 days of culture the effectors were harvested on a lymphoprep (Nycomed Pharma, Oslo, Norway) gradient and tested for cytotoxic function on 2000 ^51 Cr-labeled target cells ranging from E/T 50 to E/T 0.8 in twofold dilution steps. The percentage specific ^51 Cr release was calculated by the formula: [formula]
Background (medium) release was always <25% of maximal (2% Triton X-100) release. The SE of triplicate culture was always <5% specific ^51 Cr release. Cytolytic activity calculated from individual dose-response curves is expressed as lytic units per 10^6 effector cells. Calculations were performed using linear regression. As target cells served: B6 mouse embryo cells, treated for 2 days with 50 U/ml IFN-γ at 37° C., LPS-induced (30 μg/ml LPS-B, Bacto Lab., Difco, Detroit, Mich., added to spleen cells for 5 days at 37° C.) B cell blasts from C57BL/6 mice (LPS) or EL4 cell (thymoma cell line of C57BL/6 origin, expressing K^b and Db). […] Virus-infected target cells were prepared by incubating 10^7 target cells with 300 HAU of nonvirulent Sendai virus in 1 ml of medium for 1 h or 12 h before labeling with ^51 Cr (28).
Induction of primary CTL responses in vitro with peptide-loaded RMA-S cells. NWP SC of B6 unprimed mice were stimulated 1:1 (v/v) once in vitro with RMA-S cells, pre-cultured for 36 h at 22° C., only or incubated with 50 μM A16 peptide or 50 μM S16 peptide. Peptide was present during the 5-day culture at 25 μM concentration. The effectors were harvested and tested on B6 mouse embryo cells (MEC) and B6 LPS-induced B cell blasts (LPS) as target cells, without or with 50 μM A16 and S16, respectively.
Peptide titration at induction level (A) and at target level (B) of primary CTL induced by peptide-loaded RMA-S cells.
Primary and secondary CTL responses induced by peptide-loaded RMA-S cells. For primary CTL responses NWP SC of B6 unprimed mice were used (A and B). For secondary CTL responses NWP SC of B6 mice were primed once i.p. with non-virulent Sendai virus (C and D).

Another test concerns target cells. As to conditions: references 26 and 12; cited from earlier work.
For another test, the system named is RMA cells. Briefly: Induction of primary CTL responses with peptide-loaded parental RMA cells. As to conditions: any peptide concentration, pre-culture at 22° C. or 37° C. It counts as cell-based, murine. As for the experimental part:
as §1, §2
Background (medium) release was always <25% of maximal (2% Triton X-100) release. The SE of triplicate culture was always <5% specific ^51 Cr release. Cytolytic activity calculated from individual dose-response curves is expressed as lytic units per 10^6 effector cells. Calculations were performed using linear regression. […]

Test [1] relates to MHC class I molecules (H-2) on RMA and RMA-S cells. Briefly: Direct peptide binding studies with 125I-labeled S9 on RMA and RMA-S cells. Further details: species or system murine. How it is done: RMA and RMA-S cells were cultured for 36 h at 26° C. in Iscove's medium supplemented with 2% human pooled serum. […] MHC class I molecules were immunoprecipitated using rabbit anti-H-2^b serum (29). Class I-associated peptide was quantitated by γ-spectrometry. For determination of H-2 levels 10^6 cells were iodinated using lactoperoxidase-catalyzed iodination. Subsequently cells were washed three times in PBS and lysed in TRITON X-100 lysis buffer. H-2 antigens were precipitated from equal amounts of trichloro-acetic acid (TCA)-precipitable counts (30) using rabbit anti-H-2^b serum (29). Immunoprecipitates were analysed by SDS-PAGE on 12% gels, and gels were exposed to Kodak (Rochester, N.Y.) X-AR5 (photographic film) films. Results were expressed in arbitrary units. One unit is defined as the level of cell surface H-2 per cell and peptide binding per cell, respectively on RMA cells.
Direct peptide binding studies on RMA and RMA-S cells. […] MHC class I molecules were immunoprecipitated using rabbit anti-H-2^b serum. Class I-associated peptide was quantitated by γ-spectrometry. Results are means of duplicate experiments and shown in dpm after subtraction of normal serum control precipitates (A). In (B) 26° C. pre-cultured RMA and RMA-S cells were surface iodinated and H-2 antigens were precipitated from equal amounts of TCA-precipitable counts using rabbit anti-H-2^b serum. The amount of cell surface H-2 on RMA-S cells is depicted relative to the amount on […]. […] The amount of class I-associated peptide on RMA-S cells is depicted relative to the amount on RMA-S cells, which is set at 1 arbitrary unit. Similar results were obtained in three independent experiments.

A further test relates to Sendai virus. As to conditions: reference 12, cited from earlier work.
The target in a further test is T1, HLA-A2.1 (Homo sapiens, UniProt P04439).
T1 construct: detected by antibody BB7.2
Briefly: Peptide binding to HLA-A2.1 on (174.CEM) T2 cells. The settings on record: 200 μg/ml peptide, BB7.2 immunofluorescence. How it is done: Of this suspension 40 μl was put into a V bottomed 96 well plate (Greiner GmbH, Frickenhausen, Germany: 651101) together with 10 μl of the individual peptide dilutions (of 1 mg/ml). […] After a centrifuge round of 1200 rpm the pellet was resuspended in 50 μl of saturating amounts of HLA-A2.1 specific mouse monoclonal antibody BB7.2 for 30 minutes at 4° C.

Setting [2] is: 700 nM 125I-S9, 1 h, 26° C., FIG. 4B.

T1 sequence (P04439 25-365): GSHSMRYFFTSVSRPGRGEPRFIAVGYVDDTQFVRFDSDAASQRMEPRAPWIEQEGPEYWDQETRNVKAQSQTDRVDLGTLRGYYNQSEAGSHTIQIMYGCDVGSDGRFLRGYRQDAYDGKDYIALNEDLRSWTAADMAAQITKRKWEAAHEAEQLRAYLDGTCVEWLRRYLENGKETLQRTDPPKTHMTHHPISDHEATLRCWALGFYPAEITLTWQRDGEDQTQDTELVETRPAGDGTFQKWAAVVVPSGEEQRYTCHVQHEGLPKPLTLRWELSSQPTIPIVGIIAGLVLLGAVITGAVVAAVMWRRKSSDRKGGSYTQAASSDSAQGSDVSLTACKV
T1 sequence (P61769 21-119 partner): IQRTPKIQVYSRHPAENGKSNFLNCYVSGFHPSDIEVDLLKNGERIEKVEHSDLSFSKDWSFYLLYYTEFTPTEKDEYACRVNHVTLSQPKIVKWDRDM

With `CC(C)C[C@H](NC(=O)[C@@H](N)CC(C)C)C(=O)NCC(=O)N[C@@H](CCCNC(=N)N)C(=O)N[C@@H](CC(N)=O)C(=O)N[C@@H](CO)C(=O)N[C@@H](Cc1ccccc1)C(=O)N[C@@H](CCC(=O)O)C(=O)N[C@H](C(=O)O)C(C)C` [A8], the “Generation of CTL response against autologous peptide in vitro” value in the test on 174CEM.T2 cells was “possible to generate a CTL response against an autologous peptide”. In addition, in the test on T2 cells, the “peptide concentration sufficient for target cell sensitization” value worked out at 20 ng/mL.
Turning to “CDSGPSNTPPEIHPW (CDSGPSNTPPEIHPVV) [A16]”, the “Induction of primary CTL response by peptide-loaded RMA-S cells” value with RMA-S cells is on record as “Primary CTL responses could be induced”. In addition, in the test with target cells, the “Sensitization of target cells for lysis by CTL” value is recorded as “sensitize target cells for lysis by a CTL clone”.
As for “FAPGNYPAL [S9, Sendai virus nucleoprotein peptide of 9 aa]”, the “Induction of primary CTL response by peptide-loaded RMA cells” value in the test on RMA cells was “non-stimulatory”. In the test with RMA-S cells (FIG. 3A and B), the “minimally required concentration for primary response induction by peptide-loaded RMA-S cells” value is 1 µM. The “Induction of primary CTL response by peptide-loaded RMA-S cells” value with RMA-S cells was “primary response was obtained only by stimulation of T cells with peptide-loaded RMA-S cells”. In test [1] (setting [2]), the “difference in peptide binding per cell between RMA and RMA-S cells” value is reported as 2.5 fold; the “peptide binding per H-2 molecule on RMA-S cells versus RMA cells” value is reported as “tenfold higher”. The “peptide concentration giving comparable binding, on RMA-S (26° C.)” value in test [1] (comparable to RMA at 1 μM, FIG. 4A) is given as 1 nM. Besides, in test [1] (comparable to RMA-S at 1 nM, FIG. 4A), the “peptide concentration giving comparable binding, on RMA (26° C.)” value came to 1 µM. Further, the “amount of peptide bound to RMA cells at 20 μM” value in test [1] (compared with RMA-S cells at 1 μM) is given as “did not reach the amount of peptide bount to RMA-S cells observed at 1 μM”.
In the case of HGEFAPGNYPALWSYA [S16], the “Induction of primary CTL response by peptide-loaded RMA-S cells” value in the test with RMA-S cells was “Primary CTL responses could be induced”. Also, in the test on Sendai virus, the “Induction of CTL memory in vivo by vaccination with peptide” value was “induces CTL memory in vivo” and the “Protection against lethal Sendai virus infection” value is “induce protective immunity against a lethal Sendai virus infection”. Further, the “Protection against lethal Sendai virus infection” value with Sendai virus (listed as Sendai virus 16-mer peptide) is “protection against otherwise lethal Sendai virus doses”. For the same compound, the “Sensitization of target cells for lysis by CTL” value in the test on target cells is recorded as “sensitize target cells for lysis by specific H-2K^b -restricted CTL”.
RMPEAAPPV [D6]: in the test with HLA-A2.1, the “Binding to HLA-A2.1” value is on record as “bind to the HLA-A2.1 molecule”.
